The values below come from ChEMBL document CHEMBL6153043, “Anthelmintic Potential of Conjugated Long-Chain Fatty Acids Isolated from the Bioluminescent Mushroom Neonothopanus gardneri” (J Nat Prod, 2025).

Data set [1] in a line: Selectivity index, ratio of CC50 for African green monkey Vero cells to EC50 for anti-schistosomal activity against male Schistosoma mansoni. In kind it is toxicity, cell-based. The following applies: read-out: Ratio CC50/EC50.
The nature of data set [2]: Selectivity index, ratio of CC50 for African green monkey Vero cells to EC50 for anti-schistosomal activity against female Schistosoma mansoni. The following applies: read-out: Ratio CC50/EC50. Type of data set: toxicity, cell-based.
The nature of data set [3]: Toxicity against L4 stage of Caenorhabditis elegans assessed as effect on viability by measuring mobility at 25 to 200 uM incubated for 24 hrs by inverted microscopic analysis. As to conditions: dose 25-200 µM.

Turning to `CCCCCCCC/C=C\[C@@H](O)[C@H](O)CCCCCC(=O)O`, the selectivity ratio in data set [1] is greater than 24.1; in data set [2] it was greater than 6.13. Moreover, the Activity entry in data set [3] is “Non-toxic”.
Consider `O=C(C1CCCCC1)N1CC(=O)N2CCc3ccccc3C2C1` (stereo not given) [PRAZIQUANTEL], for which the selectivity ratio in data set [1] was greater than 250; in data set [2], greater than 333.
